Some results are limits rather than exact numbers.

In one assay the test system is HIV TCR. Particulars: read-out: ELISA | EC50 | uM. (In an ELISA, binding on a coated surface is turned into a signal by an enzyme label.)
In another assay the test system is MAGE-A3 TCR. Particulars: read-out: ELISA | EC50 | uM.
For the next assay, the system named is gp100 TCR. Particulars: read-out: ELISA | EC50 | uM.
Assay [1] addresses HIV pMHC binding to anti-HIV TCR. To be noted: read-out: ELISA | IC50 | uM.
In assay [2] the test system is MAGE-A3 TCR / MAGE-A3 pMHC. Particulars: read-out: ELISA | IC50 | uM.
The next assay concerns Mage-A3 sTCR. The assay is described as follows: kdis (1/s). The text has this: Table printed on a drawing sheet, FIG. 4B
Head of the field: kdis (1/s)

For orientation: EC50 means the concentration at which the effect is half-maximal. For the substance “GGLTCSSQNIYYLCSDGGGGS[PEG4]Lys(biotin)- NH2”, the concentration giving a half-maximal response (EC50) with HIV TCR is 0.4 µM.

Regarding “GGRICEEVYDWIFCESGGGGS[PEG4]Lys(biotin)- NH2”, the 50% effective concentration (EC50) in the assay with MAGE-A3 TCR stood at 0.31 µM.

In the case of “GGTSCAQIYDFEFCYSGGGGS[PEG4]Lys(biotin)- NH2”, in the assay on MAGE-A3 TCR, the concentration giving a half-maximal response (EC50) stood at 0.17 µM.

Turning to “GGHCYDTHSFPMYVCLGGGGS[PEG4]Lys(biotin)-NH2”, the EC50 in the assay on gp100 TCR was found to be 2.58 µM.

“GGYDCNYDPSSHTCFYGGGGS[PEG4]Lys(biotin)-NH2”: in the assay with gp100 TCR, the EC50 was determined as 0.12 µM.

“GGGTCFHGNTYFLCEDGGGGS[PEG4]Lys(biotin)- NH2”: the EC50 with HIV TCR was 0.29 µM.

Turning to “GGVTCSLGNVFYLCHDGGGGS[PEG4]Lys(biotin)- NH2”, in the assay with HIV TCR, the EC50 is 0.39 µM.

As to “GGIECYPGFWALDCLYGGGGS[PEG4]Lys(biotin)- NH2”, the concentration giving a half-maximal response (EC50) with HIV TCR turned out to be 0.43 µM.

As to “GGFTCVDGQVYYLCDSGGGGS[PEG4]Lys(biotin)- NH2”, the EC50 in the assay on HIV TCR was determined as 0.69 µM.

As a reminder, the IC50 is the concentration needed to halve the response being measured. Take “GGAFCVDTKPGLVCFEGGGGS[PEG4]Lys(biotin)- NH2”: the concentration giving a half-maximal response (EC50) in the assay with HIV TCR was found to be 0.26 µM. For the same substance, the IC50 in assay [1] was 112 µM.

With “GGQLCPEGYYALMCTDGGGGS[PEG4]Lys(biotin)- NH2”, the 50% effective concentration (EC50) in the assay with HIV TCR is 0.15 µM.

VRTWFEKFPELVGGGGS[PEG4]Lys(biotin)-NH2: in the assay with MAGE-A3 TCR, the EC50 worked out at 0.67 µM.

Consider “GGYCPLSYSQYDSPCYGGGGS[PEG4]Lys(biotin)-NH2”, for which the EC50 with gp100 TCR was found to be 0.1 µM.

Turning to “GGVICTADGVYWLCDLGGGGS[PEG4]Lys(biotin)- NH2”, the EC50 with HIV TCR amounted to 1.29 µM.

Regarding “GGATCHLDNVYFLCDIGGGGS[PEG4]Lys(biotin)- NH2”, the EC50 with HIV TCR was determined as 0.34 µM.

“GGHCFVSPASGEWWCVGGGGS[PEG4]Lys(biotin)- NH2”: the EC50 in the assay with MAGE-A3 TCR worked out at 0.08 µM. Moreover, the IC50 in assay [2] was over 100 µM.

As for “GGVSCKDVYDEAFCWTGGGGS[PEG4]Lys(biotin)- NH2”, in the assay with MAGE-A3 TCR, the concentration for a half-maximal effect (EC50) amounted to 0.01 µM. Moreover, the IC50 in assay [2] is 0.6 µM.

For “GGLVCNDGNIWWLCEDGGGGS[PEG4]Lys(biotin)- NH2”, the EC50 with HIV TCR stood at 0.88 µM.

In the case of LVWGCIWDDMCSGGGGS[PEG4]Lys(biotin)-NH2, the half-maximal effective concentration (EC50) in the assay on MAGE-A3 TCR stood at 0.1 µM. Moreover, the half-inhibitory concentration (IC50) in assay [2] is over 100 µM.

As for “GGESCQSVYDSSFCYDGGGGS[PEG4]Lys(biotin)- NH2”, the 50% effective concentration (EC50) in the assay with MAGE-A3 TCR stood at 0.1 µM.

In the case of “GGSLCSLVYDQDFCESGGGGS[PEG4]Lys(biotin)- NH2”, the EC50 in the assay on MAGE-A3 TCR was found to be 0.16 µM.

Consider “GGDICQWVRSMTECSWGGGGS[PEG4]Lys(biotin)-NH2”, for which, in the assay on gp100 TCR, the half-maximal effective concentration (EC50) was determined as 0.17 µM.

For the substance “GGNSCSLVYDKAFCLFGGGGS[PEG4]Lys(biotin)- NH2”, the EC50 in the assay with MAGE-A3 TCR stood at 0.43 µM.

For “GGRRCVDVYDNAFCLIGGGGS[PEG4]Lys(biotin)- NH2”, the concentration for a half-maximal effect (EC50) with MAGE-A3 TCR was determined as 0.25 µM.

As to “GGYCYYDIDLDQFLCNGGGGS[PEG4]Lys(biotin)-NH2”, the EC50 with gp100 TCR turned out to be 0.23 µM.

With “GGMLCNEGYWALSCFLGGGGS[PEG4]Lys(biotin)- NH2”, in the assay with HIV TCR, the half-maximal effective concentration (EC50) turned out to be 0.69 µM.

For “GGTFCYFDHGLVNCQWGGGGS[PEG4]Lys(biotin)- NH2”, in the assay with MAGE-A3 TCR, the EC50 is 0.5 µM.

In the case of “GGQTCIADNVYYLCPEGGGGS[PEG4]Lys(biotin)- NH2”, in the assay with HIV TCR, the concentration giving a half-maximal response (EC50) turned out to be 0.82 µM.

Consider “GGSNCYSLEPWIYCDTGGGGS[PEG4]Lys(biotin)- NH2”, for which the EC50 with HIV TCR came out at 0.5 µM.

With “GGICYDYMSGYDVVCMGGGGS[PEG4]Lys(biotin)-NH2”, the EC50 with gp100 TCR came to 0.11 µM.

As to “GGVTCNDGKIFYLCSDGGGGS[PEG4]Lys(biotin)- NH2”, the EC50 with HIV TCR worked out at 0.63 µM.

Take “GGSACSRIYDFAFCHTGGGGS[PEG4]Lys(biotin)- NH2”: the concentration for a half-maximal effect (EC50) with MAGE-A3 TCR turned out to be 0.33 µM.

As for “GGLCRAVEDMWVTSCMGGGGS[PEG4]Lys(biotin)-NH2”, in the assay with gp100 TCR, the half-maximal effective concentration (EC50) was 4.04 µM.

Consider “GGFCRYVRYEFWDLCMGGGGS[PEG4]Lys(biotin)-NH2”, for which the EC50 in the assay on gp100 TCR was 0.54 µM.

For the substance “GGCSWIFDGLRYFSKCGGGGS[PEG4]Lys(biotin)- NH2”, the EC50 with MAGE-A3 TCR is 0.15 µM.

Regarding “GGCHWEHVWGAGSFFCGGGGS[PEG4]Lys(biotin)-NH2”, the concentration giving a half-maximal response (EC50) in the assay with gp100 TCR came to 1.26 µM.

As for “GGLVCNDGVVFWLCDSGGGGS[PEG4]Lys(biotin)- NH2”, the EC50 with HIV TCR worked out at 0.81 µM.

As to “GGNQCWEVYDQEFCSLGGGGS[PEG4]Lys(biotin)- NH2”, the EC50 in the assay with MAGE-A3 TCR was determined as 0.05 µM.

In the case of VSCKDVYDEAFCW [Inhibitory peptide 1], the “kdis” value in the assay with Mage-A3 sTCR came to 0.0282 s⁻¹.

As to “GGNACEMTYDHTFCDPGGGGS[PEG4]Lys(biotin)- NH2”, the half-maximal effective concentration (EC50) in the assay on MAGE-A3 TCR was found to be 0.17 µM.

Consider “GGTTCLEGGVYFLCADGGGGS[PEG4]Lys(biotin)- NH2”, for which the half-maximal effective concentration (EC50) with HIV TCR amounted to 0.74 µM.

The record behind these values is patent publication US12606816B2, “Inhibitory T cell receptor peptides and discovery methods” (JANUX THERAPEUTICS, INC., priority 2018, dated 2026).
